In patent US11389438B2 (CHDI Foundation, Inc., priority 2019, dated 2022):
Read-outs that look alike come from different tables or passages of the source.

Tests used:
[1] = biological target: VHL complex (VHL, Elongin B, Elongin C, Cul2, Rbx1) (Homo sapiens (Human), UniProt P40337); assay: VHL SPR assay; format: binding
Source text: Surface Plasmon Resonance (SPR) assays have been developed to test the affinity (KD) of VHL or CRBN-based compounds to respective recombinant ligase complex/domain.
The assays are based on surface plasmon resonance (SPR), which enables to measure the changes of the local refractive index due to changes of molecular mass on a gold chip surface in the case of a binding event and in a flowing system. To detect binding between both partners, the respective E3 ligase is immobilized to the chip surface, while the test compounds are flown over the chip surface at a steady velocity. The detected changes in the RU response are indicative of the binding event and are concentration dependent.
These tags provide the anchor for the capturing process to either an NTA or Streptavidin coated chip surface (immobilization level of 3,000-5,000 RU). Because of the rather complex structure of the VHL complex, it was additionally coupled to the chip surface by amino coupling to prevent any protein loss by disruption of the complex in the flowing system.
To detect binding of compounds and extract dissociation constants KD for the tested compounds to the immobilized E3 ligase, concentration response curves of the compounds were recorded. Compounds were usually tested in 10-pt dilutions up to 20 μM final concentration in assay buffer and were flown over the chip at 30 μL/min. The contact time for each cycle includes 90 s for association and 200 s for dissociation of compounds.
In the following tables, the Kd values are indicated as: +++, <100 nM; ++, 100-500 nM, +, >500 nM.

[2] = biological target: pre-formed polyQ46 or Exon1-polyQ46 aggregates (mHTT) (Homo sapiens, UniProt P42858, INS38QQQQQQQQQQQQQQQQQQQQQQQQQ); assay: Q46_RBA radioligand binding assay (displacement of [3H]-radioligand)
Protocol: Binding of W to mHTT. A radioligand binding assay was developed to screen for compounds which can efficiently displace a radioligand detailed elsewhere (see, e.g., U.S. Patent Publication No. from US 2017/0292150) pre-formed polyQ46 or Exon1-polyQ46 aggregates (Q46_RBA).
Aggregation of polyQ peptides is initiated by cleavage of the tag from a GST-polyQ46 or from a MBP-Exon1-polyQ46 fusion protein. The pre-formed aggregates are then incubated with compounds which compete with the [^3H]-radiolabelled ligand for binding to the aggregates. The readout is a scintillation based MicroBeta measurement of radioligand bound to aggregates. The activity was indicated as: +++, <100 nM; ++, 100-500 nM, +, >500 nM.

[3] = immobilized VHL complex, read-out: VHL SPR Kd

Chain of VHL complex (VHL, Elongin B, Elongin C, Cul2, Rbx1) (P40337 whole entry, looked up): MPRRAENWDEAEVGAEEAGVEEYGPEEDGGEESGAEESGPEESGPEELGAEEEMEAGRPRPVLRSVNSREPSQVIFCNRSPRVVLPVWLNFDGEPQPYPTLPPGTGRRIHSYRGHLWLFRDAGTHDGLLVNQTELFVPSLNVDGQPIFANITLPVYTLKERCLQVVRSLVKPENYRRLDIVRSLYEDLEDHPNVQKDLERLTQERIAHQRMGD
Chain of VHL complex (VHL, Elongin B, Elongin C, Cul2, Rbx1) (Q15370 whole entry partner, looked up): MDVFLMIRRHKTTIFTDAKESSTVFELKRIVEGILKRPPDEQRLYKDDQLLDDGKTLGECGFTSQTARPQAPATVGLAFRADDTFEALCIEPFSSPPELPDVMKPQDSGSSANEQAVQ
Chain of VHL complex (VHL, Elongin B, Elongin C, Cul2, Rbx1) (Q15369 whole entry partner, looked up): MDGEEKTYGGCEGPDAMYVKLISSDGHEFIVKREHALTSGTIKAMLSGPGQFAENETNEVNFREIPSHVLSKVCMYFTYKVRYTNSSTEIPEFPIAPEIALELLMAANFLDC
Chain of VHL complex (VHL, Elongin B, Elongin C, Cul2, Rbx1) (Q13617 whole entry partner, looked up): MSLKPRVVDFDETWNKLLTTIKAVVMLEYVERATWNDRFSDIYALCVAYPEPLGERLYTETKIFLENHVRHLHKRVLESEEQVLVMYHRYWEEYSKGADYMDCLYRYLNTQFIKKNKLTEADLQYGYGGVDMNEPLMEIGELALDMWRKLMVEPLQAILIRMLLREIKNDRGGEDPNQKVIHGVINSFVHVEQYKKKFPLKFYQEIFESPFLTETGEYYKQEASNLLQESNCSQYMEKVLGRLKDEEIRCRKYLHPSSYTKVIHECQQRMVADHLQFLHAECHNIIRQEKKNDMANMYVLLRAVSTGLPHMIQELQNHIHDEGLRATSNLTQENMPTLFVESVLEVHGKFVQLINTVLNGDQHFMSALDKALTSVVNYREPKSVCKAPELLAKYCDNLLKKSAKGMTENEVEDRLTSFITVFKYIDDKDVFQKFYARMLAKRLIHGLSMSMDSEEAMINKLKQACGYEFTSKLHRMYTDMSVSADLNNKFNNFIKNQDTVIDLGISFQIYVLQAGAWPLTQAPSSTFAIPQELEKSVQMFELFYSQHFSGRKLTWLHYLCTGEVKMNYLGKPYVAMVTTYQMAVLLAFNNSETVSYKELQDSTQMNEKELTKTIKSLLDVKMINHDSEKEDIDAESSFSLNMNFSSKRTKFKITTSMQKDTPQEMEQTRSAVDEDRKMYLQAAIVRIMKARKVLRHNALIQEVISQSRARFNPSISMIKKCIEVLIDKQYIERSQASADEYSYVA
Chain of VHL complex (VHL, Elongin B, Elongin C, Cul2, Rbx1) (P62877 whole entry partner, looked up): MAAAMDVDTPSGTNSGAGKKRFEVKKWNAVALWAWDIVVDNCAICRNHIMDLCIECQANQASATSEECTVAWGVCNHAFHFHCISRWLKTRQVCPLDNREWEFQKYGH

Row | SMILES | Kd [1, 3] | IC50 [2] | Kd [1]
1 | Cc1ncsc1-c1ccc(CNC(=O)[C@@H]2C[C@@H](O)CN2C(=O)[C@H](C(C)C)N2Cc3ccccc3C2=O)c(OCCOCCOCCOCCOc2ccc(C(=O)Nc3ccc4oc(-c5ccc(=O)n(C)n5)nc4c3)nc2)c1 [Compound 20, 5-{2-[2-(2-{2-[2-({[(2S,4R)-4-Hydroxy-1-[(2S)-3-methyl-2-(1-oxo-2,3-dihydro-1H-isoindol-2-yl)butanoyl]pyrrolidin-2-yl]formamido}methyl)-5-(4-methyl-1,3-thiazol-5-yl)phenoxy]ethoxy}ethoxy)ethoxy]ethoxy}-N-[2-(1-methyl-6-oxo-1,6-dihydropyridazin-3-yl)-1,3-benzoxazol-5-yl]pyridine-2-carboxamide] | 100 to 500 nM | < 100 nM | 
2 | Cc1ncsc1-c1ccc(CNC(=O)[C@H]2C[C@H](O)CN2C(=O)[C@H](NC(=O)COCCOCCOc2ccc(COc3ccc4oc(-c5ccc(=O)n(C)n5)nc4c3)nc2)C(C)(C)C)cc1 [Compound 48] | > 500 nM | < 100 nM | 
3 | Cc1ncsc1-c1ccc(CNC(=O)[C@@H]2C[C@@H](O)CN2C(=O)[C@@H](NC(=O)COCCOCCOCCOCCOc2ccc(COc3ccc4oc(N5CCNCC5)nc4c3)nc2)C(C)(C)C)cc1 [Compound 54] | > 500 nM | > 500 nM | 
4 | CNc1c(-c2cn3c(n2)sc2cc(OCCOCCOCCOCC(=O)N[C@H](C(=O)N4C[C@H](O)C[C@H]4C(=O)NCc4ccc(-c5scnc5C)cc4)C(C)(C)C)ccc23)nc2cc(C#N)ccn12 [Compound 3] | 100 to 500 nM | < 100 nM | 
5 | Cc1ncsc1-c1ccc(CNC(=O)[C@@H]2C[C@@H](O)CN2C(=O)[C@@H](NC(=O)COCCOCCOc2ccc(COc3ccc4oc(-c5ccc(=O)n(C)n5)nc4c3)nc2)C(C)(C)C)cc1 [Compound 47, (2S,4R)-1-[(2S)-3,3-Dimethyl-2-{2-[2-(2-{[6-({[2-(1-methyl-6-oxo-1,6-dihydropyridazin-3-yl)-1,3-benzoxazol-5-yl]oxy}methyl)pyridin-3-yl]oxy}ethoxy)ethoxy]acetamido}butanoyl]-4-hydroxy-N-{[4-(4-methyl-1,3-thiazol-5-yl)phenyl]methyl}pyrrolidine-2-carboxamide] | 100 to 500 nM | < 100 nM | 
6 | COc1ccc(COc2ccc3oc(N4CCN(CCOCCOCCOCCOCC(=O)N[C@H](C(=O)N5C[C@H](O)C[C@H]5C(=O)NCc5ccc(-c6scnc6C)cc5)C(C)(C)C)CC4)nc3c2)nc1 [Compound 56] | 100 to 500 nM | > 500 nM | 
7 | Cc1ncsc1-c1ccc(CNC(=O)[C@@H]2C[C@@H](O)CN2C(=O)[C@@H](NC(=O)COCCOCCOCCOc2ccc(COc3ccc4oc(N5CCn6ccnc6C5)nc4c3)nc2)C(C)(C)C)cc1 [Compound 58, (2S,4R)-1-((S)-2-(tert-butyl)-14-((6-(((2-(5,6-dihydroimidazo[1,2-a]pyrazin-7(8H)-yl)benzo[d]oxazol-5-yl)oxy)methyl)pyridin-3-yl)oxy)-4-oxo-6,9,12-trioxa-3-azatetra-decan-1-oyl)-4-hydroxy-N-(4-(4-methylthiazol-5-yl)benzyl)-pyrrolidine-2-carboxamide] | > 500 nM | 100 to 500 nM | 
8 | Cc1ncsc1-c1ccc(CNC(=O)[C@@H]2C[C@@H](O)CN2C(=O)[C@@H](NC(=O)CCOCCOCCOCCOCCOCCOCCOCCOCCOc2ccc(C(=O)Nc3ccc4oc(-c5ccc(=O)n(C)n5)nc4c3)nc2)C(C)(C)C)cc1 [Compound 25] |  | 100 to 500 nM | 100 to 500 nM
9 | Cc1ncsc1-c1ccc(CNC(=O)[C@@H]2C[C@@H](O)CN2C(=O)[C@H](C(C)C)N2Cc3ccccc3C2=O)c(OCCOCCOCCOc2ccc(COc3ccc4oc(-c5ccc(=O)n(C)n5)nc4c3)nc2)c1 [Compound 45] | > 500 nM | 100 to 500 nM | 
10 | Cc1ncsc1-c1ccc(CNC(=O)[C@@H]2C[C@@H](O)CN2C(=O)[C@@H](NC(=O)CCOCCOc2ccc(C(=O)Nc3ccc4oc(-c5ccc(=O)n(C)n5)nc4c3)nc2)C(C)(C)C)cc1 [Compound 21] | 100 to 500 nM | < 100 nM | 
11 | Cc1ncsc1-c1ccc(CNC(=O)[C@@H]2C[C@@H](O)CN2C(=O)[C@@H](NC(=O)CCOCCOCCOc2ccc(C(=O)Nc3ccc4oc(-c5ccc(=O)n(C)n5)nc4c3)nc2)C(C)(C)C)cc1 [Compound 22, 5-{2-[2-(2-{[(2S)-1-[(2S,4R)-4-Hydroxy-2-({[4-(4-methyl-1,3-thiazol-5-yl)phenyl]methyl}carbamoyl)pyrrolidin-1-yl]-3,3-dimethyl-1-oxobutan-2-yl]carbamoyl}ethoxy)ethoxy]ethoxy}-N-[2-(1-methyl-6-oxo-1,6-dihydropyridazin-3-yl)-1,3-benzoxazol-5-yl]pyridine-2-carboxamide] | < 100 nM | < 100 nM | 
12 | Cc1ncsc1-c1ccc(CNC(=O)[C@@H]2C[C@@H](O)CN2C(=O)[C@@H](NC(=O)COCCOCCOCCOc2ccc(COc3ccc4oc(N5CCNCC5)nc4c3)nc2)C(C)(C)C)cc1 [Compound 53, (2S,4R)-1-((S)-2-(tert-butyl)-4-oxo-14-((6-(((2-(piperazin-1-yl)benzo-[d]oxazol-5-yl)oxy)methyl)pyridin-3-yl)oxy)-6,9,12-trioxa-3-azatetradecanoyl)-4-hydroxy-N-(4-(4-methylthiazol-5-yl)benzyl)pyrrolidine-2-carboxamide] | 100 to 500 nM | > 500 nM | 
13 | Cc1ncsc1-c1ccc(CNC(=O)[C@@H]2C[C@@H](O)CN2C(=O)[C@@H](NC(=O)CCOCCOCCOCCOCCOCCOc2ccc(C(=O)Nc3ccc4oc(-c5ccc(=O)n(C)n5)nc4c3)nc2)C(C)(C)C)cc1 [Compound 24] | < 100 nM | < 100 nM | 
14 | Cc1ncsc1-c1ccc(CNC(=O)[C@@H]2C[C@@H](O)CN2C(=O)[C@H](C(C)C)N2Cc3ccccc3C2=O)c(OCCOCCOCCOCCOc2ccc(COc3ccc4oc(-c5ccc(=O)n(C)n5)nc4c3)nc2)c1 [Compound 46] | > 500 nM | 101 nM | 
15 | Cc1ncsc1-c1ccc(CNC(=O)[C@@H]2C[C@@H](O)CN2C(=O)[C@@H](NC(=O)COCCOCCOCCOCCOc2ccc(COc3ccc4oc(N5CCn6ccnc6C5)nc4c3)nc2)C(C)(C)C)cc1 [Compound 57] | 100 to 500 nM | < 100 nM | 
16 | Cc1ncsc1-c1ccc(CNC(=O)[C@H]2C[C@H](O)CN2C(=O)[C@@H](C(C)C)N2Cc3ccccc3C2=O)c(OCCOCCOCCOCCOc2ccc(C(=O)Nc3ccc4oc(-c5ccc(=O)n(C)n5)nc4c3)nc2)c1 [Compound 11] | > 500 nM | < 100 nM | 
17 | Cc1ncsc1-c1ccc(CNC(=O)[C@@H]2C[C@@H](O)CN2C(=O)[C@H](C(C)C)N2Cc3ccccc3C2=O)c(OCCOCCOc2ccc(COc3ccc4oc(-c5ccc(=O)n(C)n5)nc4c3)nc2)c1 [Compound 44] | > 500 nM | 100 to 500 nM | 
18 | Cc1ncsc1-c1ccc(CNC(=O)[C@@H]2C[C@@H](O)CN2C(=O)[C@H](C(C)C)N2Cc3ccccc3C2=O)c(OCCOc2ccc(COc3ccc4oc(-c5ccc(=O)n(C)n5)nc4c3)nc2)c1 [Compound 43, (2S,4R)-4-hydroxy-1-((S)-3-methyl-2-(1-oxoisoindolin-2-yl)butan-oyl)-N-(2-(2-((6-(((2-(1-methyl-6-oxo-1,6-dihydropyridazin-3-yl)benzo[d]oxazol-5-yl)oxy)methyl)pyridin-3-yl)oxy)ethoxy)-4-(4-methylthiazol-5-yl)benzyl)pyrrolidine-2-carboxamide] | > 500 nM | < 100 nM | 
19 | CNc1c(-c2cn3c(n2)sc2cc(OCCOCCOCC(=O)N[C@H](C(=O)N4C[C@H](O)C[C@H]4C(=O)NCc4ccc(-c5scnc5C)cc4)C(C)(C)C)ccc23)nc2cc(C#N)ccn12 [Compound 2] | 100 to 500 nM | < 100 nM | 
